# According to the supplement of paper PMC10307832:
# Assays:
# Experiment in all cases: relative viability (nuclei count vs DMSO), 5 days (fraction); higher = more cells survive
# [1] = compound: C1CNCCC1C2=CC(=NN2)C3=CC=NC=C3 + O=C(CCCCCCC(=O)Nc1ccccc1)NO [Vorinostat] (partner 1 µM)
# Summary of the method: (§1)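 Each reported value is a median over duplicate plates. It expresses relative viability: treated-well nuclei count divided by vehicle-well nuclei count. Lung cancer cell lines in 1536-well plates were dosed by pin tool a day after seeding, alone with one drug or with a fixed anchor-drug dose plus five library-drug doses (not always all listed) in √10 steps, and nuclei were counted after 5 days.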
# [2] = compound: C[C@@H](N)c1ccc(C(=O)Nc2ccnc3[nH]ccc23)cc1 + CS(=O)(=O)N1CCN(Cc2cc3nc(-c4cccc5[nH]ncc45)nc(N4CCOCC4)c3s2)CC1 [Pictilisib] (partner 1 µM)
# Summary of the method: as §1
# [3] = compound: C1CNCCC1C2=CC(=NN2)C3=CC=NC=C3 + COc1cccc2cc(-c3nc([C@H]4CC[C@H](C(=O)O)CC4)n4ncnc(N)c34)[nH]c12 [OSI-027] (partner 0.5 µM)
# Summary of the method: as §1
# [4] = compound: C1CNCCC1C2=CC(=NN2)C3=CC=NC=C3 + Nc1nc2[nH]cc(CCc3ccc(C(=O)N[C@@H](CCC(=O)O)C(=O)O)cc3)c2c(=O)[nH]1 [Pemetrexed] (partner 0.2 µM)
# Summary of the method: as §1
Cell Line,relative viability ([1]; first compound 0.08 µM),relative viability ([1]; first compound 0.8 µM),relative viability ([1]; first compound 2.53 µM),relative viability ([1]; first compound 8 µM),relative viability ([2]; first compound 0.04 µM),relative viability ([2]; first compound 0.1265 µM),relative viability ([2]; first compound 0.4 µM),relative viability ([2]; first compound 1.265 µM),relative viability ([2]; first compound 4 µM),relative viability ([3]; first compound 0.8 µM),relative viability ([3]; first compound 2.53 µM),relative viability ([3]; first compound 8 µM),relative viability ([4]; first compound 0.08 µM),relative viability ([4]; first compound 0.8 µM),relative viability ([4]; first compound 2.53 µM),relative viability ([4]; first compound 8 µM),relative viability ([3]; first compound 0.08 µM)
IA-LM,0.974,1.06,0.95,1.03,0.456,0.484,0.752,0.676,0.835,–,–,–,–,–,–,–,–
LC-2-ad,0.723,0.757,0.741,0.658,0.641,0.43,0.696,0.592,0.372,0.868,0.936,0.908,0.261,0.291,0.273,0.281,–
LCLC-97TM1,0.749,0.701,0.909,0.653,0.257,0.176,0.259,0.106,0.421,0.508,0.519,0.531,0.186,0.161,0.17,0.173,0.57
LCLC-103H,0.822,0.752,0.831,0.757,0.756,0.616,0.54,0.482,0.584,0.485,0.447,0.457,0.492,0.5,0.493,0.487,0.432
LK-2,0.304,0.26,0.363,0.126,0.79,0.537,0.739,–,0.822,0.284,0.223,0.209,–,0.263,0.295,0.267,0.264
LOU-NH91,0.925,1.02,1.05,0.955,0.517,0.517,0.562,0.398,0.549,0.74,0.796,0.727,0.403,0.63,0.367,0.351,0.696
LU99A,0.465,0.45,0.528,0.554,0.307,0.319,0.385,0.297,0.324,0.291,0.331,0.304,0.218,0.181,0.153,0.337,0.292
LXF-289,0.783,0.785,0.723,0.766,0.943,0.779,0.928,0.872,0.683,0.829,0.901,0.728,0.936,0.967,0.856,0.814,0.847
NCI-H23,0.656,–,0.668,0.721,0.605,0.536,0.487,–,0.557,0.655,0.653,0.67,0.719,–,0.808,0.818,0.676
NCI-H322M,0.95,0.854,0.99,0.953,0.681,0.536,0.561,–,0.731,0.532,0.653,0.592,0.636,0.589,0.641,0.667,0.608
